PubChem BioAssay (NCI)
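Growth conditions: 96-well plates. Treatment: test compound, 48 hours, 5 concentrations. Analysis: linear interpolation between bracketing concentrations; unreached endpoints set to highest concentration. The concentration for 50% growth inhibition is given as GI50. At the TGI there is no net growth.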

Columns and labels:
Test in all cases: growth of human tumour cells (NCI), 48 h
786-0 renal = tested on: 786-0 renal
A498 renal = tested on: A498 renal
A549 NSCLC = tested on: A549 NSCLC
ACHN renal = tested on: ACHN renal
BT-549 breast = tested on: BT-549 breast
CAKI-1 renal = tested on: CAKI-1 renal
CCRF-CEM leukemia = tested on: CCRF-CEM leukemia
COLO 205 colon = tested on: COLO 205 colon
DU-145 prostate = tested on: DU-145 prostate
EKVX NSCLC = tested on: EKVX NSCLC
HCC-2998 colon = tested on: HCC-2998 colon
HCT-116 colon = tested on: HCT-116 colon
HCT-15 colon = tested on: HCT-15 colon
HL-60(TB) leukemia = tested on: HL-60(TB) leukemia
HOP-62 NSCLC = tested on: HOP-62 NSCLC
HOP-92 NSCLC = tested on: HOP-92 NSCLC
HS 578T breast = tested on: HS 578T breast
HT29 colon = tested on: HT29 colon
IGROV1 ovarian = tested on: IGROV1 ovarian
K-562 leukemia = tested on: K-562 leukemia
KM12 colon = tested on: KM12 colon
LOX IMVI melanoma = tested on: LOX IMVI melanoma
M14 melanoma = tested on: M14 melanoma
MALME-3M melanoma = tested on: MALME-3M melanoma
MCF7 breast = tested on: MCF7 breast
MDA-MB-231 breast = tested on: MDA-MB-231 breast
MDA-MB-435 = tested on: MDA-MB-435
MOLT-4 leukemia = tested on: MOLT-4 leukemia
NCI-H226 lung = tested on: NCI-H226 lung

Structure (SMILES): O=C(Nc1ccc(Oc2ccc3nc(NC(=O)c4ccco4)[nH]c3c2)cc1)Nc1cc(C(F)(F)F)ccc1F
- GI50 (786-0 renal): 3.55 µM
- TGI (786-0 renal): 10.4 µM
- GI50 (A498 renal): 0.929 µM
- TGI (A498 renal): 5.4 µM
- GI50 (A549 NSCLC): 3.19 µM
- TGI (A549 NSCLC): 11.8 µM
- GI50 (ACHN renal): 1.28 µM
- TGI (ACHN renal): 6.08 µM
- GI50 (BT-549 breast): 2.08 µM
- TGI (BT-549 breast): 6.05 µM
- GI50 (CAKI-1 renal): 1.81 µM
- TGI (CAKI-1 renal): > 14.4 µM
- GI50 (CCRF-CEM leukemia): 1.85 µM
- TGI (CCRF-CEM leukemia): > 25 µM
- GI50 (COLO 205 colon): 3.02 µM
- TGI (COLO 205 colon): 11.4 µM
- GI50 (DU-145 prostate): 2.92 µM
- TGI (DU-145 prostate): 10.6 µM
- GI50 (EKVX NSCLC): 1.75 µM
- TGI (EKVX NSCLC): > 25 µM
- GI50 (HCC-2998 colon): 2.44 µM
- TGI (HCC-2998 colon): > 20.1 µM
- GI50 (HCT-116 colon): 0.437 µM
- TGI (HCT-116 colon): 4.57 µM
- GI50 (HCT-15 colon): 1.33 µM
- TGI (HCT-15 colon): > 17.2 µM
- GI50 (HL-60(TB) leukemia): 0.823 µM
- TGI (HL-60(TB) leukemia): 7.07 µM
- GI50 (HOP-62 NSCLC): 3.44 µM
- TGI (HOP-62 NSCLC): 10.7 µM
- GI50 (HOP-92 NSCLC): 0.234 µM
- TGI (HOP-92 NSCLC): 5.74 µM
- GI50 (HS 578T breast): 0.446 µM
- TGI (HS 578T breast): 3.42 µM
- GI50 (HT29 colon): 1.18 µM
- TGI (HT29 colon): 6.09 µM
- GI50 (IGROV1 ovarian): 1.23 µM
- TGI (IGROV1 ovarian): 10.2 µM
- GI50 (K-562 leukemia): 0.0122 µM
- TGI (K-562 leukemia): 6.11 µM
- GI50 (KM12 colon): 0.0178 µM
- TGI (KM12 colon): 4.31 µM
- GI50 (LOX IMVI melanoma): 0.537 µM
- TGI (LOX IMVI melanoma): 6.04 µM
- GI50 (M14 melanoma): 0.786 µM
- TGI (M14 melanoma): 5.16 µM
- GI50 (MALME-3M melanoma): 0.699 µM
- TGI (MALME-3M melanoma): 5.31 µM
- GI50 (MCF7 breast): 2.94 µM
- TGI (MCF7 breast): 15.6 µM
- GI50 (MDA-MB-231 breast): 1.09 µM
- TGI (MDA-MB-231 breast): 5.77 µM
- GI50 (MDA-MB-435): 0.973 µM
- TGI (MDA-MB-435): 7.71 µM
- GI50 (MOLT-4 leukemia): 2.21 µM
- TGI (MOLT-4 leukemia): 15.7 µM
- GI50 (NCI-H226 lung): 0.28 µM
- TGI (NCI-H226 lung): 4.02 µM
